Common to all, as to type: cell-based, human
In experiment [1] the test system is A549 cells (Kras G12S mutation). Description: Cell proliferation inhibition experiment, 3D model, CellTiter-Glo (A549). The note with it: A549, 3D sphere plate, 5 days, 2% FBS. Put shortly: (§1)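 Luminescent ATP read-out (CellTiter-Glo) after 5-day compound treatment gave % inhibition relative to DMSO control and medium blank, fitted four-parameter for IC50. Spheroids were formed overnight in 2% FBS medium from 800 H358 or 400 A549 cells per well; dilutions were 3.16-fold, final DMSO 0.1%.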
(In general: Cellular ATP, detected with luciferase, serves as a proxy for viable cell number.)

Experiment [2] has as its system p-ERK in MIA PaCa2 cells (Kras G12C mutation). Description: Cell p-ERK detection experiment (HTRF) in MIA PaCa2 cells. Particulars: compound 2 hours. Here is the method:
MIA PaCa2 was a human pancreatic cancer cell line with Kras G12C mutation, cultured in 10% FBS+2.5% Horse serum DMEM medium. The cells in the logarithmic growth phase were taken, digested with enzyme EDTA, collected, counted and 2.5E4 cells were seeded in a 96-well cell culture plate, cultured overnight. DMSO was used to prepare 1000× compound 3.16-fold gradient concentration stock solution, and medium was used to dilute 200-fold to 5× compound stock solution. On the second day after cell seeding, 5× compound stock solution was added to each cell culture well, the final concentration was 1×, and DMSO content was 0.1%. DMSO was used as an experimental control (control). After the compound was added and cultured for two hours, the remaining medium was removed. 50 ul cell lysis buffer was added to each well, mixed and incubated for 30 minutes, then 16 ul of the mixture was transferred to a 96-well plate with a non-transparent white bottom, and 16 ul cell lysis buffer was added to blank wells. After the completion of the transfer, 4 ul p-ERK HTRF antibody mixture was added to each well, incubated for 4 hours and the fluorescence value was read. The compound inhibition rate IR (%)=(RLU control-RLU compound)/(RLU control-RLU blank)×100% was calculated, Prism 8 four-parameter method was used to fit the compound's gradient dilution concentration and the corresponding cell proliferation inhibition rate, and the IC50 value was calculate.
A general note: Time-resolved FRET reads energy transfer from a long-lived donor to a nearby acceptor.

The subject of experiment [3] is NCI-H358 cells (Kras G12C mutation). Description: Cell proliferation inhibition experiment, 3D model, CellTiter-Glo (NCI-H358). The note with it: NCI-H358, 3D sphere plate, 5 days, 2% FBS. Put shortly:
as §1

Experiment [4] has as its system MIA PaCa-2 cells (Kras G12C mutation). Description: Cell proliferation inhibition experiment, 3D model, CellTiter-Glo (MIA PaCa-2). Particulars: MIA PaCa-2, 3D sphere plate, 5 days, read-out: MIA-PaCa2 IC50. Here is the method:
MIA PaCa2 was a human pancreatic cancer cell line with Kras G12C mutation, cultured in 10% FBS+2.5% Horse serum DMEM medium; A549 was a human lung adenocarcinoma cell line with Kras G12S mutation, cultured in 10% FBS F-12K medium. The cells in the logarithmic growth phase were taken, digested with enzyme EDTA, collected, counted and 200 MIA PaCa-2 or 400 A549 cells were seeded in a 384-well sphere plate respectively, cultured overnight to establish a 3D cell model. DMSO was used to prepare 1000× compound 3.16-fold gradient concentration stock solution, and medium was used to dilute 100-fold to 10× compound stock solution. On the second day after cell seeding, 10× compound stock solution was added to each cell culture well, the final concentration was 1×, and DMSO content was 0.1%. DMSO was used as an experimental control (control), medium as the blank control (blank). After the compound and cells were added and cultured for 5 days, 30 μl CellTiter-Glo working solution was added to each well, mixed and incubated for 30 minutes. After 30 minutes at room temperature, 40 μl of the mixture was transferred to a 384-well plate with a non-transparent white bottom, the luminescence chemiluminescence value was read, and the cells proliferation inhibition rate IR (%)=(RLU control-RLU compound)/(RLU control-RLU blank)×100% was calculated, XLFit four-parameter method was used to fit the compound's gradient dilution concentration and the corresponding cell proliferation inhibition rate, and the IC50 value was calculate.

[5] abbreviates: Homo sapiens, MIA PaCa-2, 120 h.

Where two headings read alike, the source gives them in different places.

By IC50 is commonly meant the concentration that inhibits the measured activity by half.

In the case of `C=CC(=O)N1CCN2c3nc(=O)n(-c4c(C)ccnc4C(C)C)c4nc(-c5c(O)cccc5F)c(Cl)c(c34)OC[C@H]2C1` (single isomer, unassigned) [Compound Z23-1], the IC50 in experiment [1] (Homo sapiens, A549, 120 h) is more than 10 µM; in experiment [2] (Homo sapiens, MIA PaCa-2, 2 h), 0.013 µM; in experiment [3], 0.001 µM; in experiment [4] (setting [5]), 0.003 µM.
Take `C=CC(=O)N1CCN2c3nc(=O)n(-c4c(C)ccnc4C(C)C)c4nc(-c5c(O)cccc5F)c(Cl)c(c34)OC[C@@H]2C1` (single isomer, unassigned) [Compound Z24-2]: the IC50 in experiment [1] is more than 10 µM; in experiment [2], 0.025 µM; in experiment [3], 0.003 µM; in experiment [4], 0.008 µM.
As for `C=CC(=O)N1CCN2c3nc(=O)n(-c4c(C)ccnc4C(C)C)c4nc(-c5ccccc5F)c(Cl)c(c34)OC[C@@H]2C1` (single isomer, unassigned) [Compound Z46-2], the IC50 was found to be 5.48 µM in experiment [1]; 0.02 µM in experiment [2] (Homo sapiens, MIA PaCa-2, 2 h); 0.003 µM in experiment [3]; 0.008 µM in experiment [4] (setting [5]).
Regarding `C=CC(=O)N1CCN2c3nc(=O)n(-c4c(C)ccnc4C(C)C)c4nc(-c5cccc(F)c5F)c(Cl)c(c34)OC[C@@H]2C1` (single isomer, unassigned) [Compound Z47-1], the IC50 in experiment [1] was more than 10 µM; in experiment [2], 0.015 µM; in experiment [3], 0.001 µM; in experiment [4], 0.003 µM.
In the case of `C=CC(=O)N1CCN2c3nc(=O)n(-c4c(C)ccnc4C(C)C)c4nc(-c5ccc(F)cc5F)c(Cl)c(c34)OC[C@@H]2C1` (single isomer, unassigned) [Compound Z49-1], the IC50 in experiment [1] is more than 10 µM; in experiment [2], 0.064 µM; in experiment [3], 0.006 µM; in experiment [4], 0.01 µM.
With `C=CC(=O)N1CCN2c3nc(=O)n(-c4c(C)ccnc4C(C)C)c4nc(-c5c(O)cccc5F)c(F)c(c34)OC[C@H]2C1` (single isomer, unassigned) [Compound Z73-2], the IC50 was more than 10 µM in experiment [1], 0.02 µM in experiment [2], 0.002 µM in experiment [3] and 0.005 µM in experiment [4].
As for `C=CC(=O)N1CCN2c3nc(=O)n(-c4c(C)ccnc4C(C)C)c4nc(-c5ccc(F)cc5F)c(Cl)c(c34)OC[C@H]2C1` (single isomer, unassigned) [Compound Z76-2], the IC50 is more than 10 µM in experiment [1], 0.008 µM in experiment [2], 0.001 µM in experiment [3] and 0.002 µM in experiment [4] (setting [5]).
In the case of `C=CC(=O)N1CCN2c3nc(=O)n(-c4c(C)ccnc4C(C)C)c4nc(-c5cccc(F)c5F)c(Cl)c(c34)OC[C@H]2C1` (single isomer, unassigned) [Compound Z77-2], the IC50 in experiment [1] is more than 10 µM; in experiment [2] it was 0.008 µM; in experiment [3], 0.001 µM; in experiment [4] (setting [5]), 0.002 µM.
Take `C=CC(=O)N1CCN2c3nc(=O)n(-c4c(C)ccnc4C(C)C)c4nc(-c5ccccc5F)c(Cl)c(c34)OC[C@H]2C1` (single isomer, unassigned) [Compound Z87-2]: the IC50 in experiment [1] stood at 5.55 µM; in experiment [2], 0.009 µM; in experiment [3], 0.001 µM; in experiment [4] (setting [5]), 0.002 µM.
In the case of `C=CC(=O)N1CCN2c3nc(=O)n(-c4c(C)ccnc4C(C)C)c4nc(-c5cccc(Cl)c5F)c(Cl)c(c34)OC[C@H]2C1` (single isomer, unassigned) [Compound Z91-2], the IC50 in experiment [1] was more than 30 µM; in experiment [2] it was 0.018 µM; in experiment [3], 0.003 µM; in experiment [4] (setting [5]), 0.015 µM.
For `C=CC(=O)N1CCN2c3nc(=O)n(-c4c(C)ncnc4C(C)C)c4nc(-c5ccccc5F)c(Cl)c(c34)OC[C@H]2C1` (single isomer, unassigned) [Compound Z95-2] the same measures were more than 10 µM, 0.005 µM, 0.001 µM and 0.001 µM.
The matching figures for `C=CC(=O)N1CCN2c3nc(=O)n(-c4c(C)ncnc4C(C)C)c4nc(-c5cccc(F)c5F)c(Cl)c(c34)OC[C@H]2C1` (single isomer, unassigned) [Compound Z96-2]: more than 10 µM, 0.007 µM, 0.002 µM and 0.002 µM.
Take `C=CC(=O)N1CCN2c3nc(=O)n(-c4c(C#N)cnn4C(C)(C)C)c4nc(-c5ccccc5F)c(Cl)c(c34)OC[C@H]2C1` (single isomer, unassigned) [Compound Z109-1]: the concentration for half-maximal inhibition (IC50) in experiment [1] (Homo sapiens, A549, 120 h) amounted to 8.48 µM; in experiment [2] (Homo sapiens, MIA PaCa-2, 2 h), 0.018 µM; in experiment [3], 0.005 µM; in experiment [4] (setting [5]), 0.012 µM.
Turning to `C=CC(=O)N1CCN2c3nc(=O)n(-c4c(OC)ncnc4C(C)C)c4nc(-c5c(O)cccc5F)c(F)c(c34)OC[C@H]2C1` (single isomer, unassigned) [Compound Z111-2], the concentration for half-maximal inhibition (IC50) was more than 30 µM in experiment [1] (Homo sapiens, A549, 120 h); 0.034 µM in experiment [2] (Homo sapiens, MIA PaCa-2, 2 h); 0.003 µM in experiment [3] (Homo sapiens, NCI-H358, 120 h); 0.013 µM in experiment [4] (setting [5]).
Turning to `C=CC(=O)N1CCN2c3nc(=O)n(-c4c(C)ccnc4C4CC4)c4nc(-c5c(O)cccc5F)c(F)c(c34)OC[C@H]2C1` (single isomer, unassigned) [Compound Z112-1], the IC50 in experiment [1] (Homo sapiens, A549, 120 h) was more than 30 µM; in experiment [2] it was 0.024 µM; in experiment [3], 0.003 µM; in experiment [4] it was 0.004 µM.
Regarding `C=CC(=O)N1CCN2c3nc(=O)n(-c4c(C)ccnc4C4CC4)c4nc(-c5c(O)cccc5F)c(F)c(c34)OC[C@H]2C1` (single isomer, unassigned) [Compound Z112-2], the IC50 in experiment [1] is more than 30 µM; in experiment [2] it was 0.502 µM; in experiment [3], 0.094 µM; in experiment [4], 0.126 µM.
For `C=CC(=O)N1CCN2c3nc(=O)n(-c4c(C)ccnc4C(C)C)c4nc(-c5ccc(F)cc5F)c(Cl)c(c34)OC[C@@H]2C1` [Compound Z49], the IC50 in experiment [1] (Homo sapiens, A549, 120 h) was more than 10 µM; in experiment [2] (Homo sapiens, MIA PaCa-2, 2 h), 0.128 µM; in experiment [3], 0.012 µM; in experiment [4], 0.022 µM.
In the case of `C=CC(=O)N1CCN2c3nc(=O)n(-c4c(C)ccnc4C(C)C)c4nc(-c5c(O)ccc(F)c5F)c(Cl)c(c34)OC[C@@H]2C1` [Compound Z53], the half-inhibitory concentration (IC50) in experiment [1] (Homo sapiens, A549, 120 h) was more than 10 µM; in experiment [2] (Homo sapiens, MIA PaCa-2, 2 h), 0.048 µM; in experiment [3] (Homo sapiens, NCI-H358, 120 h), 0.004 µM; in experiment [4] (setting [5]) it was 0.01 µM.
The matching figures for `C=CC(=O)N1CCN2c3nc(=O)n(-c4c(C)ccnc4C(C)C)c4nc(-c5ccccc5Cl)c(Cl)c(c34)OC[C@@H]2C1` [Compound Z58]: more than 10 µM, 0.014 µM, 0.001 µM and 0.003 µM.
Consider `C=CC(=O)N1CCN2c3nc(=O)n(-c4c(C)ccnc4C(C)C)c4nc(-c5cc(F)ccc5F)c(Cl)c(c34)OC[C@@H]2C1` [Compound Z60], for which the IC50 in experiment [1] (Homo sapiens, A549, 120 h) was more than 10 µM; in experiment [2] (Homo sapiens, MIA PaCa-2, 2 h), 0.047 µM; in experiment [3] (Homo sapiens, NCI-H358, 120 h), 0.007 µM; in experiment [4] (setting [5]), 0.019 µM.
For the compound `C=CC(=O)N1CCN2c3nc(=O)n(-c4c(C)ccnc4C(C)C)c4nc(-c5cccc(Cl)c5F)c(Cl)c(c34)OC[C@@H]2C1` [Compound Z61], the IC50 in experiment [1] (Homo sapiens, A549, 120 h) is more than 10 µM; in experiment [2] (Homo sapiens, MIA PaCa-2, 2 h), 0.05 µM; in experiment [3] (Homo sapiens, NCI-H358, 120 h) it was 0.001 µM; in experiment [4] (setting [5]), 0.008 µM.
In the case of `C=CC(=O)N1CCN2c3nc(=O)n(-c4c(C)ccnc4C(C)C)c4nc(-c5ccc(Cl)cc5F)c(Cl)c(c34)OC[C@@H]2C1` [Compound Z65], the IC50 in experiment [1] (Homo sapiens, A549, 120 h) was more than 10 µM; in experiment [2] (Homo sapiens, MIA PaCa-2, 2 h), 0.182 µM; in experiment [3] (Homo sapiens, NCI-H358, 120 h), 0.009 µM; in experiment [4] (setting [5]) it was 0.034 µM.

The values are drawn from patent US20220251109A1, “OXAAZAQUINAZOLINE-7(8H)-KETONE COMPOUND, PREPARATION METHOD THEREFOR AND PHARMACEUTICAL APPLICATION THEREOF” (GENFLEET THERAPEUTICS (SHANGHAI) INC., priority 2019, published 2022).
